Columns and labels:
[1] = tested on: Cabbage Looper (Trichoplusia ni); test: Bioassay on Cabbage Looper (CL), 128-well diet tray assay; format: in vivo; conditions: Cabbage Looper, Table ABC, read-out: CL rating
Outline: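 Second-instar larvae, one to five per well, placed on artificial diet surface-treated with 50 μg/cm^2 compound in acetone-water, eight wells per compound. Held 5-7 days at 25° C, 14:10 light-dark; percent mortality per well averaged across wells.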

[2] = tested on: Beet Armyworm (Spodoptera exigua); test: Bioassay on Beet Armyworm (BAW), 128-well diet tray assay; format: in vivo; conditions: Beet Armyworm, Table ABC, read-out: BAW rating
Outline: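 Second-instar larvae (one to five per well) placed on artificial diet surface-treated with 50 μg/cm^2 test molecule in 90:10 acetone-water, dried, eight wells per molecule. Held at 25° C, 14:10 light-dark, five to seven days; percent mortality recorded per well and averaged across the eight wells.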

Row | SMILES | pest or weed control at 50 µg/cm2 [1] | pest or weed control at 50 µg/cm2 [2]
1 | C[C@@H](NC(=O)c1ccc(/C(F)=C/C(c2cc(Cl)c(Cl)c(C#N)c2)C(F)(F)F)cc1C(F)(F)F)C(=O)NCC(F)(F)F (stereo partly drawn) [F192, 4-((Z)-3-(3,4-Dichloro-5-cyanophenyl)-1,4,4,4-tetrafluorobut-1-en-1-yl)-N—((R)-1-oxo-1-((2,2,2-trifluoroethyl)amino)propan-2-yl)-2-(trifluoromethyl)benzamide] | 50 to 100% | 50 to 100%
2 | C[C@@H](NC(=O)c1ccc(/C(F)=C/C(c2cc(Cl)c(Cl)c(C(C)(F)F)c2)C(F)(F)F)cc1C(F)(F)F)C(=O)NCC(F)(F)F (stereo partly drawn) [F193, 4-((Z)-3-(3,4-Dichloro-5-(1,1-difluoroethyl)phenyl)-1,4,4,4-tetrafluorobut-1-en-1-yl)-N—((R)-1-oxo-1-((2,2,2-trifluoroethyl)amino)propan-2-yl)-2-(trifluoromethyl)benzamide] | 50 to 100% | 50 to 100%
3 | C[C@@H](NC(=O)c1ccc(/C(F)=C/C(c2cc(Cl)c(Cl)c(CF)c2)C(F)(F)F)cc1C(F)(F)F)C(=O)NCC(F)(F)F (some centres unmarked) [F194] | 50 to 100% | 50 to 100%
4 | C[C@@H](NC(=O)c1ccc(/C(F)=C/C(c2cc(Cl)c(Cl)c(C(F)F)c2)C(F)(F)F)cc1C(F)(F)F)C(=O)NCC(F)(F)F (stereo partly drawn) [F195, 4-((Z)-3-(3,4-dichloro-5-(difluoromethyl)phenyl)-1,4,4,4-tetrafluorobut-1-en-1-yl)-N—((R)-1-oxo-1-((2,2,2-trifluoroethyl)amino)propan-2-yl)-2-(trifluoromethyl)benzamide] | 50 to 100% | 50 to 100%
5 | C=Cc1cc(C(/C=C(\F)c2ccc(C(=O)N[C@@H]3CON(CC(F)(F)F)C3=O)c(C(F)(F)F)c2)C(F)(F)F)cc(Cl)c1Cl (stereo partly drawn) [F196, 4-((Z)-3-(3,4-Dichloro-5-vinylphenyl)-1,4,4,4-tetrafluorobut-1-en-1-yl)-N—((R)-3-oxo-2-(2,2,2-trifluoroethyl)isoxazolidin-4-yl)-2-(trifluoromethyl)benzamide] | 50 to 100% | 50 to 100%
6 | O=C(N[C@@H]1CON(CC(F)(F)F)C1=O)c1ccc(/C(F)=C/C(c2cc(Cl)c(Cl)c(Br)c2)C(F)(F)F)cc1C(F)(F)F (stereo partly drawn) [F197, 4-((Z)-3-(3-Bromo-4,5-dichlorophenyl)-1,4,4,4-tetrafluorobut-1-en-1-yl)-N—((R)-3-oxo-2-(2,2,2-trifluoroethyl)isoxazolidin-4-yl)-2-(trifluoromethyl)benzamide] | 50 to 100% | 50 to 100%
7 | O=C(N[C@@H]1CON(CC(F)(F)F)C1=O)c1ccc(/C(F)=C/C(c2cc(Cl)c(Cl)c(Cl)c2)C(F)(F)F)cc1Br (stereo partly drawn) [F198, 2-Bromo-N—((R)-3-oxo-2-(2,2,2-trifluoroethyl)isoxazolidin-4-yl)-4-((Z)-1,4,4,4-tetrafluoro-3-(3,4,5-trichlorophenyl)but-1-en-1-yl)benzamide] | 50 to 100% | 50 to 100%
8 | O=C(N[C@@H]1CON(CC(F)(F)F)C1=O)c1ccc(/C(F)=C/C(c2cc(Cl)c(Cl)c(C(F)F)c2)C(F)(F)F)cc1C(F)(F)F (stereo partly drawn) [F199, 4-((Z)-3-(3,4-Dichloro-5-(difluoromethyl)phenyl)-1,4,4,4-tetrafluoro-but-1-enyl)-N—((R)-3-oxo-2-(2,2,2-trifluoroethyl)isoxazolidin-4-yl)-2-(trifluoromethyl)benzamide] | 50 to 100% | 50 to 100%
9 | C=Cc1cc(/C(F)=C/C(c2cc(Cl)c(Cl)c(Cl)c2)C(F)(F)F)ccc1C(=O)NCC(=O)NCC(F)(F)F (centres unmarked) [F200, (Z)—N-(2-Oxo-2-((2,2,2-trifluoroethyl)amino)ethyl)-4-(1,4,4,4-tetrafluoro-3-(3,4,5-trichlorophenyl)but-1-en-1-yl)-2-vinylbenzamide] | 50 to 100% | 50 to 100%
10 | C=Cc1cc(/C(F)=C/C(c2cc(Cl)c(Cl)c(Cl)c2)C(F)(F)F)ccc1C(=O)N[C@H](C)C(=O)NCC(F)(F)F (stereo partly drawn) [F201, N—((R)-1-Oxo-1-((2,2,2-trifluoroethyl)amino)propan-2-yl)-4-((Z)-1,4,4,4-tetrafluoro-3-(3,4,5-trichlorophenyl)but-1-en-1-yl]-2-vinylbenzamide] | 50 to 100% | 50 to 100%
11 | C[C@@H](NC(=O)c1ccc(/C(F)=C/C(c2cc(F)c(Cl)c(C(F)(F)F)c2)C(F)(F)F)cc1C(F)(F)F)C(=O)NCC(F)(F)F (stereo partly drawn) [F202, 4-((Z)-3-(4-Chloro-3-fluoro-5-(trifluoromethyl)phenyl)-1,4,4,4-tetrafluorobut-1-en-1-yl)-N—((R)-1-oxo-1-((2,2,2-trifluoroethyl)amino)propan-2-yl)-2-(trifluoromethyl)benzamide] | 50 to 100% | 50 to 100%
12 | O=C(CNC(=O)c1ccc(/C(F)=C/C(c2cc(F)c(Cl)c(C(F)(F)F)c2)C(F)(F)F)cc1C(F)(F)F)NCC(F)(F)F (centres unmarked) [F203, (Z)-4-(3-(4-Chloro-3-fluoro-5-(trifluoromethyl)phenyl)-1,4,4,4-tetrafluoro-but-1-en-1-yl)-N-(2-oxo-2-((2,2,2-trifluoroethyl)amino)ethyl)-2-(trifluoromethyl)benzamide] | 50 to 100% | 50 to 100%
13 | C=Cc1cc(/C(F)=C/C(c2cc(Cl)c(Cl)c(Cl)c2)C(F)(F)F)ccc1C(=O)N[C@@H]1CON(CC(F)(F)F)C1=O (stereo partly drawn) [F204, N—((R)-3-Oxo-2-(2,2,2-trifluoroethyl)isoxazolidin-4-yl)-4-((Z)-1,4,4,4-tetrafluoro-3-(3,4,5-trichlorophenyl)but-1-en-1-yl)-2-vinylbenzamide] | 50 to 100% | 50 to 100%
14 | O=C(CNC(=O)c1ccc(/C(F)=C/C(c2ccc(C(F)(F)F)c(Cl)c2)C(F)(F)F)cc1C(F)(F)F)NCC(F)(F)F (centres unmarked) [F206, (Z)-4-(3-(3-Chloro-4-(trifluoromethyl)phenyl)-1,4,4,4-tetrafluorobut-1-en-1-yl)-N-(2-oxo-2-((2,2,2-trifluoroethyl)amino)ethyl)-2-(trifluoromethyl)benzamide] | 50 to 100% | 50 to 100%
15 | C[C@@H](NC(=O)c1ccc(/C(F)=C/C(c2cc(Cl)cc(OCC(F)(F)F)c2)C(F)(F)F)cc1C(F)(F)F)C(=O)NCC(F)(F)F (stereo partly drawn) [F207, 4-((Z)-3-(3-chloro-5-(2,2,2-trifluoroethoxy)phenyl)-1,4,4,4-tetrafluorobut-1-en-1-yl)-N—((R)-1-oxo-1-((2,2,2-trifluoroethyl)amino)propan-2-yl)-2-(trifluoromethyl)benzamide] | 50 to 100% | 50 to 100%
16 | O=C(CNC(=O)c1ccc(/C(F)=C/C(c2ccc(C(F)(F)F)c(F)c2)C(F)(F)F)cc1C(F)(F)F)NCC(F)(F)F (centres unmarked) [F211] | 50 to 100% | 50 to 100%
17 | C[C@@H](NC(=O)c1ccc(/C(F)=C/C(c2cc(Cl)cc(C#CC(C)(C)C)c2)C(F)(F)F)cc1C(F)(F)F)C(=O)NCC(F)(F)F (stereo partly drawn) [F212, 4-((Z)-3-(3-Chloro-5-(3,3-dimethylbut-1-yn-1-yl)phenyl)-1,4,4,4-tetrafluorobut-1-en-1-yl)-N—((R)-1-oxo-1-((2,2,2-trifluoroethyl)amino)propan-2-yl)-2-(trifluoromethyl)benzamide] | 50 to 100% | 50 to 100%
18 | C[C@@H](NC(=O)c1ccc(/C(F)=C/C(c2cc(Cl)cc(C(F)F)c2)C(F)(F)F)cc1C(F)(F)F)C(=O)NCC(F)(F)F (stereo partly drawn) [F213, 4-((Z)-3-(3-Chloro-5-(difluoromethyl)phenyl)-1,4,4,4-tetrafluorobut-1-en-1-yl)-N—((R)-1-oxo-1-((2,2,2-trifluoroethyl)amino)propan-2-yl)-2-(trifluoromethyl)benzamide] | 50 to 100% | 50 to 100%
19 | C[C@@H](NC(=O)c1ccc(/C(F)=C/C(c2cc(F)c(F)c(Br)c2)C(F)(F)F)cc1C(F)(F)F)C(=O)NCC(F)(F)F (stereo partly drawn) [F214, 4-((Z)-3-(3-Bromo-4,5-difluorophenyl)-1,4,4,4-tetrafluorobut-1-en-1-yl)-N—((R)-1-oxo-1-((2,2,2-trifluoroethyl)amino)propan-2-yl)-2-(trifluoromethyl)benzamide] | 50 to 100% | 50 to 100%
20 | O=C(CNC(=O)c1ccc(/C(F)=C/C(c2ccc(F)c(F)c2)C(F)(F)F)cc1C(F)(F)F)NCC(F)(F)F (centres unmarked) [F215, (Z)-4-(3-(3,4-difluorophenyl)-1,4,4,4-tetrafluorobut-1-en-1-yl)-N-(2-oxo-2-((2,2,2-trifluoroethyl)amino)ethyl)-2-(trifluoromethyl)benzamide] | 50 to 100% | 50 to 100%
21 | C[C@@H](NC(=O)c1ccc(/C(F)=C/C(c2cc(F)c(F)c(C#CC(C)(C)C)c2)C(F)(F)F)cc1C(F)(F)F)C(=O)NCC(F)(F)F (stereo partly drawn) [F216, 4-((Z)-3-(3-(3,3-Dimethylbut-1-yn-1-yl)-4,5-difluorophenyl)-1,4,4,4-tetrafluorobut-1-en-1-yl)-N—((R)-1-oxo-1-((2,2,2-trifluoroethyl)amino)propan-2-yl)-2-(trifluoromethyl)benzamide] | 50 to 100% | 50 to 100%
22 | O=C(CNC(=O)c1ccc(/C(F)=C/C(c2cc(F)c(F)c(Br)c2)C(F)(F)F)cc1C(F)(F)F)NCC(F)(F)F (centres unmarked) [F217, (Z)-4-(3-(3-Bromo-4,5-difluorophenyl)-1,4,4,4-tetrafluorobut-1-en-1-yl)-N-(2-oxo-2-((2,2,2-trifluoroethyl)amino)ethyl)-2-(trifluoromethyl)benzamide] | 50 to 100% | 50 to 100%
